Measured values: patent publication US20240150286A1, “PEROXISOME PROLIFERATOR-ACTIVATED RECEPTOR GAMMA (PPARy) LIGANDS AND METHODS OF USE AS TREATMENTS FOR INSULIN RESISTANCE, OBESITY, FATTY LIVER DISEASE, AND TYPE 2 DIABETES” (The Board of Regents of the University of Oklahoma, priority 2022, published 2024)

Key:
[1] = system: 3T3-L1 cells; test: 3T3-L1 adipocyte differentiation (Oil Red O staining, adipogenic gene mRNA); format: cell-based, mouse
Procedure: (§1) 3T3-L1 preadipocytes were differentiated. In brief, cells at around 60%-70% confluence were induced for differentiation with DMEM containing 10% FBS, 1 μg/ml insulin, 1 μM dexamethasone, and 0.5 mM IBMX for 48 h in the presence or absence of compounds and were then exposed in maintenance medium (1 μg/mL insulin in 10% FBS/DMEM) containing compounds. The medium was renewed every 2 days for total 8 days of differentiation when the cells became differentiated and lipid droplets were apparent. For primary preadipocyte differentiation, isolation of primary preadipocytes was performed. Briefly, fat depots were digested in PBS containing collagenase D (1.5 U/ml) at 37° C. for 40-45 min. The primary cells were filtered through 70 μm cell strainer and centrifuge at 700 g to collect stromal vascular fraction (SVF). The SVF cell pellets were plated on collagen coated plates. […]
(§2) Total RNA (2 μg) was isolated from tissues or cells using TRIzol reagents (Life Technologies) and reverse transcribed using oligo d(T) primers (New England Biosystems) and SuperScript IV reverse transcription kit (Applied Biosystems). qPCR was performed in a CFX96 Touch Real-Time PCR detection system using SYBR Green mix (Applied Biosystems). […] Relative mRNA expression was determined by the ΔΔCt method normalized to TBP mRNA. […]

[2] = system: primary preadipocytes isolated from iWAT and eWAT; test: Browning gene expression in differentiated primary preadipocytes; format: cell-based, mouse; conditions: differentiated with WO95E vs DMSO
Procedure: as §1, §2

[3] = system: diet-induced obesity (DIO) mice; test: TZD-associated side effects in DIO mice (PCV, heart weight, cardiac and bone genes); format: in vivo, mouse
Procedure: (§3) C57BL/6J male mice were obtained from Jackson laboratory (Bar Harbor, ME) and maintained on a 12 h light (6:00 AM to 6:00 PM)—12 h dark (6:00 PM to 6:00 AM) cycle at an ambient temperature of 22±1° C. All animals had access to diet and water ad libitum. All procedures involving animals were approved by the Institutional Animal Care and Use Committee of the University of Oklahoma Health Science Center. All experiments were performed with age-matched male mice. The mice were fed a high-fat diet (HFD) (60% kcal fat, Bio-Serv, NJ, USA) starting from the age of 6 weeks until study end. […] Food intake was determined manually by measuring the amount of input food subtracting the amount of the food remaining in the food hopper and the crumbs on the bedding of the cage each day for three days during the 4th week of the treatment. Packed cell volume (PCV) was measured with blood drawn from tail on a LW Scientific E8 centrifuge (LW Scientific, Lawrenceville, Georgia, USA) microhematocrit centrifuge at the end of study. For all other measurements, the blood was drawn at the time of euthanization.
(§4) Total RNA (2 μg) was isolated from tissues or cells using TRIzol reagents (Life Technologies) and reverse transcribed using oligo d(T) primers (New England Biosystems) and SuperScript IV reverse transcription kit (Applied Biosystems). qPCR was performed in a CFX96 Touch Real-Time PCR detection system using SYBR Green mix (Applied Biosystems). The amplification program was as follows: initial denaturation at 95° C. for 15 min, followed by 40 cycles of 95° C. for 15 s, 60° C. for 1 min, and 40° C. for 30 s. Relative mRNA expression was determined by the ΔΔCt method normalized to TBP mRNA.

[4] = target: T1, PPARγ ligand-binding domain (LBD) (Homo sapiens, UniProt P37231); test: In vitro competition binding assay (PolarScreen PPARγ-Competitor, fluorescence polarization)
T1 construct: purchased Thermo Fisher Scientific
T1 sequence (P37231 238-503 limits assumed): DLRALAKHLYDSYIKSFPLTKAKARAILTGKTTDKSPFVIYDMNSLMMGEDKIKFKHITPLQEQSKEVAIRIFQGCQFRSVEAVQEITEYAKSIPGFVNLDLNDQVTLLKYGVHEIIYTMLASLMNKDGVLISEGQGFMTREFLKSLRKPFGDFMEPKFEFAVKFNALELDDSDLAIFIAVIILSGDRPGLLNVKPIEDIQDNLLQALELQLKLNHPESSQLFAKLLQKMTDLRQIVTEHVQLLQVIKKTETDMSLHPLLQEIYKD
Procedure: The in vitro competition binding assays was performed using PolarScreen™ PPARγ-Competitor Assay Kit according to the manufacturer's instructions. Briefly, compounds at 2-fold titration serial concentrations were incubated with GST-tagged PPARγ ligand-binding domain (LBD, 34 nM) and Fluormone PPAR Green tracer (9 nM) for 4 hours in the dark at room temperature in a black 384-well assay plate (Corning Glass cat. no. 677). The florescence polarization value (mP) was measured at 485 nm (excitation) and at 535 nm (emission) using a microplate reader.

[5] = system: PPARγ S273 phosphorylation; test: PPARγ S273 phosphorylation and phosphorylation-dependent genes in 3T3-L1 differentiated adipocytes; format: cell-based, mouse
Procedure: as §4

[6] = system: liver of DIO mice; test: Liver steatosis in DIO mice (H&E histology, qRT-PCR); format: in vivo, mouse; conditions: vs vehicle
Procedure: as §3
Liver, heart, bone, adipose tissues were dissected and immediately fixed in 4% paraformaldehyde (Sigma-Aldrich), paraffin embedded, and stained with hematoxylin and eosin. For Immunofluorescence staining, the eWAT and iWAT paraffin sections were incubated with primary antibody (rabbit polyclonal to F4/80 [1:500, Cat #: 70076], Cell Signaling Technology) overnight at 4° C. after deparaffinization. […]
as §2

Structure (SMILES): Cc1c(C)n(Cc2ccc(-c3ccccc3C(=O)O)cc2)c2ccc(C(=O)NCc3cccc(O)c3)cc12 [WO95E, 4′-((5-((3-hydroxybenzyl)carbamoyl)-2,3-dimethyl-1H-indol-1-yl)methyl)-[1,1′-biphenyl]-2-carboxylic acid]
- mRNA levels of adipogenic genes PPARγ, FABP4, Glut4, PEPCK, C/EBPa ([1]; 3T3-L1, compounds at 10 μM, qRT-PCR): only minimally or moderately increased
- Oil Red O staining / adipocyte differentiation ([1]; 3T3-L1, differentiation media, compounds at 10 μM): only marginally increased Oil Red O staining level
- expression levels of Prdm16, UCP1, PCG1α, Ppara in iWAT adipocytes [2]: significantly increased
- mRNA levels of bone formation genes (Bglap, SPP1, ColA1) ([3]; 4-week treatment): no apparent effect
- packed-cell volume (PCV) ([3]; indicator of hemodilution): unchanged
- heart weight ([3]; relative to vehicle): no effect
- mRNA levels of Myh7 and Nppb in heart ([3]; vs vehicle): not significantly altered or even lowered
- IC50 fold lower than that of UHC1 ([4]; WO95E vs UHC1): approximately 70 fold
- IC50 ([4]; competition with Fluormone PPAR Green tracer, GST-PPARγ LBD 34 nM, read-out: half-maximum inhibitory concentration (IC50), binding to PPARγ LBD): ~11 nM
- mRNA levels of PPARγ phosphorylation-dependent genes (adiponectin, cycp2f2, Ddx-17, Rarres2, Selenbp1) ([5]; 3T3-L1, 10 μM, qRT-PCR): upregulation
- S273 phosphorylation of PPARγ ([5]; 3T3-L1 differentiated adipocytes, TNFα 10 ng/ml 1 h, compounds at 10 μM, Western blot): significantly inhibited
- number of lipid droplets in the liver ([6]; H&E): markedly reduced
- expression levels of PEPCK and G6PC in liver [6]: significantly decreased
- lipogenic genes FASN, SCD-1, ACC in liver [6]: down-regulated
